According to US20160052926A1, “NOVEL PYRIMIDINE AND PYRIDINE COMPOUNDS AND USAGE THEREOF” (HUTCHISON MEDIPHARMA LIMITED, priority 2013, published 2016):

How the values were obtained:
Assay type in all cases: biochemical
[1] = target: Recombinant human FGFR1 (Homo sapiens, UniProt P11362); test: Transcreener Kinase Assay of FGFR1; details: read-out: FGFR1 (FP) IC50
Method: Transcreener Kinase Assay of FGFR1
(§1) Prepare Solution • Compounds were solved in DMSO and were diluted with assay buffer to 5 folds of final concentration keeping the DMSO concentration at 5%. Further dilution are needed to make final concentrations are at 1, 0.33, 0.11, 0.037, 0.012, 0.004, 0.0014, 0.0005 μM; (the final concentration of DMSO is 1%). • Enzyme/Substrate stock Preparation: Recombinant human FGFR1 and Poly E4Y are both diluted in assay buffer.
(§2) Enzymatic Reaction • In a 96-well plate, Add 5 μL of compound or control. (positive control: 5 μL of 5% DMSO; negative control: 5 μL of 500 mM EDTA) into desired wells; • Add 10 μL of Enzyme/Substrate stock into each well; • Add 10 μL of ATP Diluents to initiate the enzyme reaction and votex the plate immediately on a plate shaker; • For the wells to make standard curve, add 5 μL of 5% DMSO, 10 μL of assay buffer and 10 μL of ATP standard curve stock. • Incubate the plate for 45 min at 28[…] on a plate shaker in a low speed.
Excitation wavelength: 610 nm, Emission wavelength: 670 nm.
(§3) • [ADP] in Compound well represents the ADP concentration in compound well. • [ADP] in Positive control well represents the ADP concentration in 5% DMSO well • Conversion of mP value to ADP concentration is calculated based on the formula which determined by standard curve. And mP value is measured by following the instruction provided by BellBrook Labs. (www.bellbrooklabs.com). 6. IC50: calculated using XL-Fit 2.0 software.

[2] = target: FGFR3 kinase (Homo sapiens, UniProt P22607); test: Z-Lyte Kinase Assay of FGFR3
Method: Z-Lyte Kinase Assay of FGFR3
The final concentrations are 1, 0.33, 0.11, 0.037, 0.012, 0.004, 0.0014, 0.00046 μM, and the final concentration of DMSO is 2%. • 3) Kinase/Peptide Mixture (P/K solution): Prepare Kinase/Peptide Mixture by diluting the kinase to 0.7 μg/ml and the Z-LYTE™ Tyr 4 peptide to 4 μM in 1.33× Kinase Buffer. Mix gently by pipetting. • 4) Phospho-peptide Solution (PP solution): Add 0.4 μl of Z-LYTE™ Tyr 4 Phospho-peptide to 99.6 μl of 1.33× Kinase Buffer. • 5) ATP Solution: Prepare ATP Solution by diluting the 10 mM of ATP in 1.33× Kinase Buffer to 300 uM. • 6) Development Solution: Dilute Development Reagent B with Development Buffer as 1:128.
Shake the plate for 30 Sec and centrifuge (1500 rpm, 1 min) • Seal the plate to protect from the light and incubate the plate for 1 hour at RT (25-30[…]) • 2) Development reaction • Add 5 μl of the Development solution to all wells • Shake the plate for 30 Sec and centrifuge (1500 rpm, 1 min) • Seal the plate to protect from the light and incubate the plate for 1 hour at RT (25-30[…]) • 3) Stop and read • Add 5 μl of the Stop reagent to all wells • Shake the plate for 30 Sec and centrifuge (1500 rpm, 1 min) • Measure the value of Coumarin (Ex400 nm, Em445 nm) and fluorescein (Ex400 nm, Em520 nm), respectively.
Inhibition rate(IR)=1−%Photest Cpd/%PhoC2
• determined with add-in software for Microsoft Excel, XLfit™ (version 2.0) from ID Business Solutions (Guildford, UK)

[3] = target: Recombinant human FGFR2 (Homo sapiens, UniProt P21802); test: Transcreener Kinase Assay of FGFR2; details: read-out: FGFR2 (FP) IC50
Method: Transcreener Kinase Assay of FGFR2
as §1, with “•” for “Prepare Solution •”, “FGFR2” for “FGFR1”, “buffer. The final concentration is 0.3 ng/μL for FGFR2 and 62.5 ng/μL for Poly E4Y. The mixture is being kept in ice before use; • Prepare ATP Diluents, 10 mM ATP is diluted in assay buffer, the final concentration is 25 μM; • Prepare ADP Diluents: diluted ADP (500 μM) in assay buffer, the final concentration is 25 μM; • Prepare ATP standard curve stock as following:” for “buffer.”
as §2, with “•” for “Enzymatic Reaction •”
• Detection Mix Preparation: The mixture is made by dilution with MilliQ water; as following: ADP Alexa633 tracer (1:100), ADP antibody (1:158), and stop & detect buffer (1:10); • Tracer Only control Preparation: The mixture is made by dilution with MilliQ water; as following: ADP Alexa633 tracer (1:100), and stop & detect buffer (1:10) • No Tracer control Preparation: stop & detect buffer is diluted with MilliQ water; by 10 fold. • Add 25 μL of detection mix, Tracer Only control and No Tracer control into corresponding wells, respectively; • Incubate at 28 °C for 1 h, on a plate shaker in a low speed; • Measure florescence polarization (FP) on TECAN F500. Excitation wavelength: 610 nm, Emission wavelength: 670 nm.
as §3

Chain of Recombinant human FGFR1 (P11362 22-822): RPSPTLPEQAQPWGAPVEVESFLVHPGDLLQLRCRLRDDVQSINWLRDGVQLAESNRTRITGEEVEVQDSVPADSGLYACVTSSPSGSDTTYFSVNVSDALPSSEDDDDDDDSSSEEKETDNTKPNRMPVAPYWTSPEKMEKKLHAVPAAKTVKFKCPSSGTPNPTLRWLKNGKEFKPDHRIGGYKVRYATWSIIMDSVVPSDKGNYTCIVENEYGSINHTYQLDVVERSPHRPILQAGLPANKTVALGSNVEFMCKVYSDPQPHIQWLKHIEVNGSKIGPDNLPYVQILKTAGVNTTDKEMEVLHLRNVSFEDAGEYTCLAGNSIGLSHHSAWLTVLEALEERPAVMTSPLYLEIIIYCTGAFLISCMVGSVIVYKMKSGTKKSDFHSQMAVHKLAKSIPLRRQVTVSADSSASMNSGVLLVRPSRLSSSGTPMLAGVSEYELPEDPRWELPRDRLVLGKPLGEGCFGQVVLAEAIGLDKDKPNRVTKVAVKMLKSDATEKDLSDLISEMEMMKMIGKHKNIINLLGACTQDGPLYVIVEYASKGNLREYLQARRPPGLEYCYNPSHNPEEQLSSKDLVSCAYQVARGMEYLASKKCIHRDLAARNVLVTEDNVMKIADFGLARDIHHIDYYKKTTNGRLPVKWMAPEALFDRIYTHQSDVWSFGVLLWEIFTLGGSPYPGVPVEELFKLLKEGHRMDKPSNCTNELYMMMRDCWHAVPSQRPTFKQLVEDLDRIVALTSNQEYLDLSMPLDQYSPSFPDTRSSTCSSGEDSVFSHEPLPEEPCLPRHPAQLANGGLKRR
Chain of Recombinant human FGFR2 (P21802 22-821): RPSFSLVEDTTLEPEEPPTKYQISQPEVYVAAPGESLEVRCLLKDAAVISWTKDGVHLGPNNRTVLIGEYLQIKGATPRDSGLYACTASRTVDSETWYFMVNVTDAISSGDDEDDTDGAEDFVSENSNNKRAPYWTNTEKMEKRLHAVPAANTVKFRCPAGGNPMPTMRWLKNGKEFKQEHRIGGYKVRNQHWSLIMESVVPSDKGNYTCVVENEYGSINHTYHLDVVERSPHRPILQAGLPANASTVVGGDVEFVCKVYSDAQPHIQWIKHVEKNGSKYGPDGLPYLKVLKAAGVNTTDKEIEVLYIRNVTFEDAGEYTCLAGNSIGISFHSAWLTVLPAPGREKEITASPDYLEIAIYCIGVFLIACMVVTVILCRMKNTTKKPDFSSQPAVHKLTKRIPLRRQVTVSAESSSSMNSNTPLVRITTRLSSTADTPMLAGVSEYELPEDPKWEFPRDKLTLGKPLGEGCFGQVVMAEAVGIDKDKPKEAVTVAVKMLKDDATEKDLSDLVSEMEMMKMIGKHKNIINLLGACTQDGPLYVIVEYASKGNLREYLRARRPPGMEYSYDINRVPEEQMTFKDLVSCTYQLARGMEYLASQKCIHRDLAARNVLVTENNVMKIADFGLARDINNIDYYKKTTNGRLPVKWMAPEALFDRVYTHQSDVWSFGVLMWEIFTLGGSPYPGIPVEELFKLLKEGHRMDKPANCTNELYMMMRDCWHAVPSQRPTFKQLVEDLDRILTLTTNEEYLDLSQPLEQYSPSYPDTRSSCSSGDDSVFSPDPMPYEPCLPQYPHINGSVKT
Chain of FGFR3 kinase (P22607 23-806): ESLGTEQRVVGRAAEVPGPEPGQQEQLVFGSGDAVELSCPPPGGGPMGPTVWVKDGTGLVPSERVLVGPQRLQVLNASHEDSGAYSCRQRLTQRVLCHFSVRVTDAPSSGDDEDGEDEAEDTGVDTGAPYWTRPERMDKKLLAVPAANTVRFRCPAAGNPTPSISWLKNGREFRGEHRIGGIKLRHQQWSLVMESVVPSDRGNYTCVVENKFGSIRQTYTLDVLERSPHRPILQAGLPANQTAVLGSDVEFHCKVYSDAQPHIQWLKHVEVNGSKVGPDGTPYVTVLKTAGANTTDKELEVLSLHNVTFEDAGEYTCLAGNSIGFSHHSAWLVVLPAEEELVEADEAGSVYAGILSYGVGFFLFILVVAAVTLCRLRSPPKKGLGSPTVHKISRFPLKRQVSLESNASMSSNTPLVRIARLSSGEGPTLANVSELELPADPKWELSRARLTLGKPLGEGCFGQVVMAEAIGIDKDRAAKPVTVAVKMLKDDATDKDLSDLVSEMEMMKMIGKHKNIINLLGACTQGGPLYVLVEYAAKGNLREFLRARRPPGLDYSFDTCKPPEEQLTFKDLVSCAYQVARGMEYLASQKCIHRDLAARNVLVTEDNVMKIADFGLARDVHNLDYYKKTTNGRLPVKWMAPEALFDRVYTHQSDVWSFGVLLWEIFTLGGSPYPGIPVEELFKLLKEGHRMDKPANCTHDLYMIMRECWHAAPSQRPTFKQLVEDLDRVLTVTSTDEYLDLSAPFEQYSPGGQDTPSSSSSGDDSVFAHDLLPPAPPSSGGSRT

Row | Compound | IC50 [1] [nM] | IC50 [2] [nM] | IC50 [3] [nM]
1 | CCN1CCN(c2ccc(Nc3ncc(CCc4cc(C(=O)NC)cc5occc45)cn3)cc2)CC1 [Compound 4] | 201 | 795 | 233
2 | CCN1CCN(c2ccc(Nc3ncc(CCc4cc(C(=O)NOC)cc5c4CCO5)cn3)cc2)CC1 [Compound 6] | 922 |  | 986
3 | CCN1CCN(c2ccc(Nc3ncc(CCc4cc(C(=O)NC5CC5)cc5occc45)cn3)cc2)CC1 [Compound 7] | 143 | 590 | 169
4 | CNC(=O)c1cc(CCc2cnc(Nc3cccc(N4C[C@@H](C)N[C@@H](C)C4)c3)nc2)cc(OC)c1 [Compound 12] | 98 | 128 | 25
5 | CCn1cnc(Nc2ncc(CCc3cc(C(=O)NC)cc(OC)c3F)cn2)c1 [Compound 28] | 360 | 347 | 245
6 | CCOc1cc(CCc2cnc(Nc3ccc(N4CCN(CC)CC4)cc3)nc2)cc(C(=O)NOC)c1 [Compound 51] | 103 | 175 | 113
7 | CCN1CCN(c2ccc(Nc3ncc(CCc4cc(OC)cc(C(=O)NOC(C)C)c4)cn3)cc2)CC1 [Compound 58] | 325 | 509 | 123
8 | CNC(=O)c1cc(CCc2cnc(Nc3ccn4cnnc4c3)nc2)c(F)c(OC)c1 [Compound 68] | 31 | 25 | 13
9 | CNC(=O)c1cc(CCc2cnc(Nc3ccn4c(C)nnc4c3)nc2)c(F)c(OC)c1 [Compound 70] | 27 | 22 | 16
10 | CNC(=O)c1cc(CCc2cnc(Nc3ccn4c(COC)nnc4c3)nc2)c(F)c(OC)c1 [Compound 73] | 34 | 40 | 11
11 | CNC(=O)c1cc(CCc2cnc(Nc3cc[n+]([O-])c(C)c3)nc2)c(F)c(OC)c1 [Compound 78, 4-((5-(2-fluoro-3-methoxy-5-(methylcarbamoyl)phenethyl)pyrimidin-2-yl)amino)-2-methylpyridine 1-oxide] | 44 | 31 | 18
12 | CNC(=O)c1cc(CCc2cnc(Nc3c(C)nn(C)c3C)nc2)c(F)c(OC)c1 [Compound 109] | 379 | 311 | 275
13 | CNC(=O)c1cc(CCc2cnc(Nc3cnn(CC(=O)N4CCN(C)CC4)c3)nc2)c(F)c(OC)c1 [Compound 144] | 13 | 16 | 6
14 | CNC(=O)c1cc(CCc2cnc(Nc3cnn(C4CCNCC4)c3)nc2)c(Cl)c(OC)c1 [Compound 158, 4-chloro-3-methoxy-N-methyl-5-(2-(2-(1-(piperidin-4-yl)-1H-pyrazol-4-ylamino)pyrimidin-5-yl)ethyl)benzamide] | 8 | 6 | 8
15 | CNC(=O)c1cc(CCc2cnc(Nc3cnn(C4CNC4)c3)nc2)c(F)c(OC)c1 [Compound 160] | 15 | 16 | 10
16 | CNC(=O)c1cc(CCc2cnc(Nc3cnn([C@@H]4CCNC4)c3)nc2)c(F)c(OC)c1 [Compound 161] | 17 | 12 | 9
17 | CNC(=O)c1cc(CCc2cnc(Nc3cnn([C@H]4CCNC4)c3)nc2)c(F)c(OC)c1 [Compound 162] | 17 | 14 | 10
18 | CNC(=O)c1cc(CCc2cnc(Nc3cnn(C4CCNCC4)c3)nc2)c(F)c(OC)c1 [Compound 164] | 8 | 8 | 8
19 | CCN1CC[C@@H](n2cc(Nc3ncc(CCc4cc(C(=O)NC)cc(OC)c4F)cn3)cn2)C1 [Compound 170] | 99 | 132 | 87
20 | CCn1cc(Nc2ccc(OCc3cc(C(=O)NC)cc(OC)c3F)cn2)cn1 [Compound 187] | 271 | 227 | 132
21 | CNC(=O)c1cc(COc2cnc(Nc3cnn(C4C[C@@H](C)N[C@@H](C)C4)c3)nc2)c(F)c(OC)c1 (some centres unmarked) [Compound 202] | 15 | 7 | 6
22 | CNC(=O)c1cc(CCc2cnc(Nc3ccc(CC(=O)O)cc3)nc2)c(F)c(OC)c1 [Compound 206] | 38 | 21 | 13
23 | CNC(=O)c1cc(COc2cnc(Nc3ccc(CC(=O)O)cc3)nc2)c(F)c(OC)c1 [Compound 207] | 45 | 29 | 16
24 | C#Cc1ccc(Nc2ncc(OCc3cc(C(=O)NC)cc(OC)c3F)cn2)cc1 [Compound 210] | 119 | 690 | 27
25 | CNC(=O)c1cc(CCc2cnc(Nc3ccc(N4C[C@@H](C)N[C@@H](C)C4)nc3)nc2)c(Cl)c(OC)c1 [Compound 214] | 10 | 17 | 11
26 | CNC(=O)c1cc(COc2cnc(Nc3ccc(N4C[C@@H](C)N[C@@H](C)C4)c(F)c3)nc2)c(Cl)c(OC)c1 [Compound 220] | 10 | 10 | 4
27 | CNC(=O)c1cc(C#Cc2cnc(Nc3ccc(N4C[C@@H](C)N[C@@H](C)C4)cc3)nc2)c(Cl)c(OC)c1 [Compound 222, 4-chloro-3-((2-((4-((3S,5R)-3,5-dimethylpiperazin-1-yl)phenyl)amino)pyrimidin-5-yl)ethynyl)-5-methoxy-N-methylbenzamide] | 22 | 27 | 8
